How the values were obtained:
[1] = test system: Ovcar-3 human ovarian cancer cells; test: MTT assay, in vitro inhibitory activity on cells; assay type: cell-based; settings: typically 48 hours
Source text: (§1) In this example, MTT assay was used to detect in vitro inhibitory activity of the compounds prepared according to the above examples on the cells. […] AP24534 was purchased from Shanghai Xinkuo Chemical Technology Co., Ltd., China.
(§2) Dimethyl sulfoxide (DMSO) is capable of dissolving formazan in cells, and absorbance value can be measured at a wavelength of 490 nm by an enzyme-linked immunometric meter, which reflects the number of living cells. Within a certain range of the number of cells, the amount of MTT crystals formed is proportional to the number of living cells.
(§3) 1. […] 2. Culturing in a 37° C., 5% CO2 incubator and keeping the cells adhering to the wall of the well. 3. […] 4. Carefully removing the supernatant, gently washing with PBS and discarding the supernatant again. 5. […] 6. Terminating culturing and carefully discarding the medium in each well. 7. Adding 150 μl dimethyl sulfoxide into each well, shaking for 10 minutes at low speed in a shaker, to make crystals fully dissolved. 8. Measuring the absorbance of each well at 490 nm by an enzyme-linked immunometric meter. 9. Calculating IC50 values.

[2] = test system: MDA-MB-231 human breast cancer cells; test: MTT assay, in vitro inhibitory activity on cells; assay type: cell-based; settings: typically 48 hours
Source text: as §1, §2, §3

[3] = test system: K562 chronic myelogenous leukemia cells; test: MTT assay, in vitro inhibitory activity on cells; assay type: cell-based; settings: Homo sapiens, K562, 48 h, typically 48 hours
Source text: as §1, §2, §3

[4] = test system: Saos-2 human osteosarcoma cells; test: MTT assay, in vitro inhibitory activity on cells; assay type: cell-based; settings: typically 48 hours
Source text: as §1, §2, §3

Human ABL1 (T315I) = target: T1, Human ABL1 (T315I) (Homo sapiens, UniProt P00519, T315I); test: ABL1 (T315I) kinase activity, [γ-33P] ATP / Abltide radiometric assay; assay type: biochemical; settings: ATP 1.0 μM, 120 minutes, room temperature
T1 construct: purchased Millipore Corporation, USA #14-522
Experimental: Kinase activity was determined according to the manufacturer's instructions. Peptide substrate is Abltide ([…]), purchased from Millipore Corporation, USA. Ion exchange chromatography paper P81 was purchased from Whatman Company, UK. [γ-33P] ATP was purchased from Perkin Elmer Company.
[γ-33P] ATP was added at room temperature, with final concentration of 1.0 μM, and the reaction was performed for 120 minutes. 20 μl aliquots were transferred onto the ion exchange chromatography paper P81. The paper was thoroughly washed with a 0.75% phosphoric acid solution three times, and then washed with acetone once. Finally, γ-33P radioactivity was measured.

[5] = test system: MEG-01 human megakaryocyte leukemia cells; test: CellTiter-Glo cell viability assay on Bcr-Abl-positive cells; assay type: cell-based; settings: 72 hours
Experimental: Each compound was dissolved in DMSO to 10 mM, diluted to 50 μM with complete medium, and then diluted to 10 μM with 0.1% DMSO in complete medium. The resulting solution was 10-fold serially diluted and formulated into 10 concentrations.
MEG-01 human megakaryocyte leukemia cells and KU812 human peripheral blood basophilic leukocytes, purchased from ATCC Company, USA.
6) Calculating cell viability (Cell Viability)=(RLUsample/RLUnegative)×100%, wherein RLUsample was RLU (Relative Light Units) value of the well added with the compound and RLUnegative was RLU value of the well without the compound (that is, cell control, which was treated with the same concentration of DMSO). Data were processed by using a four-parameter logistic fitting module in Graphpad Prism 4.0 software to calculate IC50.

[6] = test system: KU812 human peripheral blood basophilic leukocytes; test: as above; settings: KU812, 72 h, read-out: IC50 KU812

Row | Compound | IC50 [1] | IC50 [2] | IC50 [3] | IC50 [4] | IC50 (Human ABL1 (T315I)) | IC50 [5] | IC50 [6]
1 | Cc1ccc(C(=O)Nc2ccc(CN3CCN(C)CC3)c(C(F)(F)F)c2)cc1C#Cc1ccc2cncnc2c1 [Example 3, 3-((quinazolin-7-yl)ethynyl)4-methyl-N-[4-((4-methylpiperazin-1-yl)methyl)-3-trifluoromethylphenyl]benzamide] | 4470 nM | 2450 nM | 1340 nM | 1070 nM | 4.51 nM |  | 
2 | Cc1ccc(C(=O)Nc2ccc(CN3CCN(C)CC3)c(C(F)(F)F)c2)cc1C#Cc1cccc2ncncc12 [Example 4, 3-((quinazolin-5-yl)ethynyl)-4-methyl-N-[4-((4-methylpiperazin-1-yl)methyl)-3-trifluoromethylphenyl]benzamide] | 6230 nM | 1300 nM | 2440 nM | 1590 nM | 2.3 nM |  | 
3 | Cc1ccc(C(=O)Nc2ccc(CN3CCN(C)CC3)c(C(F)(F)F)c2)cc1C#Cc1ccc2c(=O)[nH]cnc2c1 [Example 9, 3-((4-oxo-3,4-dihydroquinazolin-7-yl)ethynyl)-4-methyl-N-[4-((4-methylpiperazin-1-yl)methyl)-3-trifluoromethylphenyl]benzamide] |  |  | 5340 nM |  | 5.8 nM | 1.49 nM | 0.518 nM
4 | Cc1ccc(C(=O)Nc2ccc(CN3CCN(C)CC3)c(C(F)(F)F)c2)cc1C#Cc1cc(F)c2cnc(N)nc2c1 [Example 5, 3-((5-fluoro-2-aminoquinazolin-7-yl)ethynyl)-4-methyl-N-[4-((4-methylpiperazin-1-yl)methyl)-3-trifluoromethylphenyl]benzamide] | 6520 nM | 6710 nM | 2120 nM | 310 nM |  |  | 
5 | Cc1ccc(NC(=O)Nc2ccc(CN3CCN(C)CC3)c(C(F)(F)F)c2)cc1C#Cc1cccc2[nH]nc(N)c12 [Example 32, N-[3-((3-amino-1H-indazol-4-yl)ethynyl)-4-methyl]phenyl-N′-[4-((4-methylpiperazin-1-yl)methyl)-3-trifluoromethylphenyl]urea] | 6970 nM | 2110 nM | 660 nM | 2130 nM |  |  | 
6 | Cc1ccc(C(=O)Nc2ccc(CN3CCN(C)CC3)c(C(F)(F)F)c2)cc1C#Cc1ccc2cnc(N)nc2c1 [Example 11, 3-((2-aminoquinazolin-7-yl)ethynyl)-4-methyl-N-[4-((4-methylpiperazin-1-yl)methyl)-3-trifluoromethylphenyl]benzamide] | 4720 nM | 2790 nM | 900 nM | 1790 nM |  |  | 
7 | Cc1ccc(C(=O)Nc2ccc(CN3CCN(C)CC3)c(C(F)(F)F)c2)cc1C#Cc1ccc2c(N)ncnc2c1 [Example 13, 3-((4-aminoquinazolin-7-yl)ethynyl)-4-methyl-N-[4-((4-methylpiperazin-1-yl)methyl)-3-trifluoromethylphenyl]benzamide] |  |  | 4120 nM |  | 9.5 nM | 3.56 nM | 1.17 nM

From patent US20150152088A1, “ALKYNYL HETEROAROMATIC COMPOUND AND USE THEREOF” (Nanjing Sanhome Pharmaceutical Co., Ltd., priority 2012, published 2015)
